pIC50: −log10 of the molar value. Activity calls are given as the source filed them. The rule behind the calls is not given here. Peptide text beside a SMILES is read from it. * marks the point of attachment. Cbz = O=C(OCc1ccccc1)*
Assays:
[1] = Cytotoxicity against human fibroblasts assessed as growth inhibition after 48 hrs by MTT assay; type: cell-based; conditions: Fibroblast
SW480 = assay: Cytotoxicity against human SW480 cells assessed as growth inhibition after 48 hrs by MTT assay; type: functional, cell-based; conditions: SW480, 48 h
SK-OV-3 = assay: Cytotoxicity against human SKOV3 cells assessed as growth inhibition after 48 hrs by MTT assay; type: functional, cell-based; conditions: SK-OV-3, 48 h
HeLa = assay: Cytotoxicity against human HeLa cells assessed as growth inhibition after 48 hrs by MTT assay; type: functional, cell-based
JIYOYE = assay: Cytotoxicity against human Jijoye cells assessed as growth inhibition after 48 hrs by MTT assay; type: functional, cell-based
K562 = assay: Cytotoxicity against human K562 cells assessed as growth inhibition after 48 hrs by MTT assay; type: functional, cell-based; conditions: K562, 48 h
Jurkat [2] = assay: Cytotoxicity against human Jurkat cells assessed as growth inhibition after 48 hrs by MTT assay; type: functional, cell-based
Jurkat [3] = assay: Inhibition of proteasome in human Jurkat cells assessed as accumulation of ubiquitinated protein at 50 uM by Western blot analysis; type: cell-based
Jurkat [4] = assay: Inhibition of trypsin-like activity of proteasome in human Jurkat cells at 50 uM after 30 mins by fluorescence assay; type: cell-based
Jurkat [5] = assay: Inhibition of chymotrypsin-like activity of proteasome in human Jurkat cells assessed as residual activity at 50 uM after 30 mins by fluorescence assay relative to control; type: cell-based
Jurkat [6] = assay: Inhibition of trypsin-like activity of proteasome isolated from human Jurkat cells using Boc-LRR-AMC as substrate assessed as residual activity at 100 uM incubated for 30 mins followed by substrate addition measured for 2 hrs by fluorescence assay relative to control; type: cell-free
Jurkat [7] = assay: Inhibition of trypsin-like activity of proteasome isolated from human Jurkat cells using Boc-LRR-AMC as substrate assessed as residual activity at 50 uM incubated for 30 mins followed by substrate addition measured for 2 hrs by fluorescence assay relative to control; type: cell-free
Jurkat [8] = assay: Inhibition of trypsin-like activity of proteasome isolated from human Jurkat cells using Boc-LRR-AMC as substrate assessed as residual activity at 25 uM incubated for 30 mins followed by substrate addition measured for 2 hrs by fluorescence assay relative to control; type: cell-free
Jurkat [9] = assay: Inhibition of chymotrypsin-like activity of proteasome isolated from human Jurkat cells using Suc-LLVY-AMC as substrate assessed as residual activity at 100 uM incubated for 30 mins followed by substrate addition measured for 2 hrs by fluorescence assay relative to control; type: cell-free
Jurkat [10] = assay: Inhibition of chymotrypsin-like activity of proteasome isolated from human Jurkat cells using Suc-LLVY-AMC as substrate assessed as residual activity at 50 uM incubated for 30 mins followed by substrate addition measured for 2 hrs by fluorescence assay relative to control; type: cell-free
Jurkat [11] = assay: Inhibition of chymotrypsin-like activity of proteasome isolated from human Jurkat cells using Suc-LLVY-AMC as substrate assessed as residual activity at 25 uM incubated for 30 mins followed by substrate addition measured for 2 hrs by fluorescence assay relative to control; type: cell-free
Jurkat [12] = assay: Induction of apoptosis in human Jurkat cells assessed as dead cells at 20 uM by propidium iodide/annexin V staining-based FACS flow cytometric analysis (reference value: 0.66%); type: functional
Jurkat [13] = assay: Induction of apoptosis in human Jurkat cells assessed as late apoptotic cells at 20 uM by propidium iodide/annexin V staining-based FACS flow cytometric analysis (reference value: 0.37%); type: functional
Jurkat [14] = assay: Induction of apoptosis in human Jurkat cells assessed as early apoptotic cells at 20 uM by propidium iodide/annexin V staining-based FACS flow cytometric analysis (reference value: 1.87%); type: functional
Jurkat [15] = assay: Cell cycle arrest in human Jurkat cells assessed as accumulation at sub G0/G1 phase at 20 uM by propidium iodide staining-based FACS flow cytometric analysis (reference value: 4.81%); type: functional
Jurkat [16] = assay: Cell cycle arrest in human Jurkat cells assessed as accumulation at G2/M phase at 20 uM by propidium iodide staining-based FACS flow cytometric analysis (reference value: 16.63%); type: functional
Jurkat [17] = assay: Cell cycle arrest in human Jurkat cells assessed as accumulation at S phase at 20 uM by propidium iodide staining-based FACS flow cytometric analysis (reference value: 26.91%); type: functional
Jurkat [18] = assay: Cell cycle arrest in human Jurkat cells assessed as accumulation at G0/G1 phase at 20 uM by propidium iodide staining-based FACS flow cytometric analysis (reference value: 52.59%); type: functional
Jurkat [19] = assay: Induction of apoptosis in human Jurkat cells assessed as caspase 3/7 activation at 20 uM after overnight incubation by luminescence assay; type: functional, cell-based
Jurkat [20] = assay: Inhibition of trypsin-like activity of proteasome isolated from human Jurkat cells using Boc-LRR-AMC as substrate assessed as residual activity at 10 uM incubated for 30 mins followed by substrate addition measured for 2 hrs by fluorescence assay relative to control; type: cell-free
Jurkat [21] = assay: Inhibition of chymotrypsin-like activity of proteasome isolated from human Jurkat cells using Suc-LLVY-AMC as substrate assessed as residual activity at 10 uM incubated for 30 mins followed by substrate addition measured for 2 hrs by fluorescence assay relative to control; type: cell-free
Jurkat [22] = assay: Cell cycle arrest in human Jurkat cells assessed at 20 uM by propidium iodide staining-based FACS flow cytometric analysis; type: functional

## COC(=O)[C@H](C)NC(=O)[C@]12CCC(C)(C)C[C@H]1C1=CC[C@@H]3[C@@]4(C)CC=C(B5OC(C)(C)C(C)(C)O5)C(C)(C)[C@@H]4CC[C@@]3(C)[C@]1(C)CC2
[1]
  pIC50: < 4.30
SW480
  pIC50: < 4.30
SK-OV-3
  pIC50: < 4.30
HeLa
  pIC50: < 4.30
JIYOYE
  pIC50: < 4.30
K562
  pIC50: < 4.30
Jurkat [2]
  pIC50: < 4.30

## C[C@H](NC(=O)[C@]12CCC(C)(C)C[C@H]1C1=CC[C@@H]3[C@@]4(C)CC=C(B5OC(C)(C)C(C)(C)O5)C(C)(C)[C@@H]4CC[C@@]3(C)[C@]1(C)CC2)C(=O)O
Jurkat [3]
  inhibition: Active
Jurkat [4]
  inhibition: Active
Jurkat [5]
  Activity: 37%
Jurkat [6]
  Activity: 50.8%
Jurkat [7]
  Activity: 70.7%
Jurkat [8]
  Activity: 85.1%
Jurkat [9]
  Activity: 47.2%
Jurkat [10]
  Activity: 84.3%
Jurkat [11]
  Activity: 91.7%
Jurkat [12]
  Activity: 16.33%
Jurkat [13]
  Activity: 13.67%
Jurkat [14]
  Activity: 5.37%
Jurkat [15]
  Activity: 15.82%
Jurkat [16]
  Activity: 12.19%
Jurkat [17]
  Activity: 14.24%
Jurkat [18]
  Activity: 58.78%
Jurkat [19]
  Activity: Active
[1]
  pIC50: < 4.30
SW480
  pIC50: 4.54
SK-OV-3
  pIC50: 4.51
HeLa
  pIC50: 4.52
JIYOYE
  pIC50: 4.71
K562
  pIC50: 4.70
Jurkat [2]
  pIC50: 4.67

## CC(C)C[C@@H](C=O)NC(=O)[C@H](CC(C)C)NC(=O)[C@H](CC(C)C)NC(=O)OCc1ccccc1 (Cbz-Leu-Leu-Leu-aldehyde)
Jurkat [20]
  Activity: < 20%
Jurkat [21]
  Activity: < 20%

## COC(=O)[C@]12CCC(C)(C)C[C@H]1[C@H]1/C(=N\O)C[C@@H]3[C@@]4(C)CC=C(B5OC(C)(C)C(C)(C)O5)C(C)(C)[C@@H]4CC[C@@]3(C)[C@]1(C)CC2
[1]
  pIC50: < 4.30
SW480
  pIC50: < 4.30
SK-OV-3
  pIC50: < 4.30
HeLa
  pIC50: < 4.30
JIYOYE
  pIC50: < 4.30
K562
  pIC50: < 4.30
Jurkat [2]
  pIC50: < 4.30

## COC(=O)[C@]12CCC(C)(C)C[C@H]1[C@H]1C(=O)C[C@@H]3[C@@]4(C)CC=C(B5OC(C)(C)C(C)(C)O5)C(C)(C)[C@@H]4CC[C@@]3(C)[C@]1(C)CC2
[1]
  pIC50: < 4.30
SW480
  pIC50: < 4.30
SK-OV-3
  pIC50: < 4.30
HeLa
  pIC50: < 4.30
JIYOYE
  pIC50: < 4.30
K562
  pIC50: < 4.30
Jurkat [2]
  pIC50: < 4.30

## CC1(C)CC[C@]2(C#N)CC[C@]3(C)C(=CC[C@@H]4[C@@]5(C)CC=C(B6OC(C)(C)C(C)(C)O6)C(C)(C)[C@@H]5CC[C@]43C)[C@@H]2C1
[1]
  pIC50: < 4.30
SW480
  pIC50: < 4.30
SK-OV-3
  pIC50: < 4.30
HeLa
  pIC50: < 4.30
JIYOYE
  pIC50: < 4.30
K562
  pIC50: < 4.30
Jurkat [2]
  pIC50: < 4.30

## COC(=O)[C@]12CCC(C)(C)C[C@H]1[C@H]1C(=O)C=C3[C@@]4(C)CC=C(B5OC(C)(C)C(C)(C)O5)C(C)(C)[C@@H]4CC[C@@]3(C)[C@]1(C)CC2
[1]
  pIC50: < 4.30
SW480
  pIC50: < 4.30
SK-OV-3
  pIC50: < 4.30
HeLa
  pIC50: < 4.30
JIYOYE
  pIC50: < 4.30
K562
  pIC50: < 4.30
Jurkat [2]
  pIC50: < 4.30

## COC(=O)[C@]12CCC(C)(C)C[C@H]1C1=CC[C@@H]3[C@@]4(C)CC=C(B5OC(C)(C)C(C)(C)O5)C(C)(C)[C@@H]4CC[C@@]3(C)[C@]1(C)CC2
[1]
  pIC50: < 4.30
SW480
  pIC50: < 4.30
SK-OV-3
  pIC50: < 4.30
HeLa
  pIC50: < 4.30
JIYOYE
  pIC50: < 4.30
K562
  pIC50: < 4.30
Jurkat [2]
  pIC50: < 4.30

## CC1(C)CC[C@]2(C(=O)NCC(=O)O)CC[C@]3(C)C(=CC[C@@H]4[C@@]5(C)CC=C(B6OC(C)(C)C(C)(C)O6)C(C)(C)[C@@H]5CC[C@]43C)[C@@H]2C1
Jurkat [3]
  inhibition: Active
Jurkat [4]
  inhibition: Active
Jurkat [5]
  Activity: 25%
Jurkat [6]
  Activity: 51.4%
Jurkat [7]
  Activity: 84.1%
Jurkat [8]
  Activity: 85.3%
Jurkat [9]
  Activity: 59.3%
Jurkat [10]
  Activity: 64%
Jurkat [11]
  Activity: 83.6%
Jurkat [12]
  Activity: 19.81%
Jurkat [13]
  Activity: 13.22%
Jurkat [14]
  Activity: 3.73%
Jurkat [15]
  Activity: 13.79%
Jurkat [16]
  Activity: 10.6%
Jurkat [17]
  Activity: 13.27%
Jurkat [18]
  Activity: 82.2%
Jurkat [19]
  Activity: Active
[1]
  pIC50: < 4.30
SW480
  pIC50: 4.75
SK-OV-3
  pIC50: 4.81
HeLa
  pIC50: 4.55
JIYOYE
  pIC50: 4.87
K562
  pIC50: 4.74
Jurkat [2]
  pIC50: 4.81

## COC(=O)CNC(=O)[C@]12CCC(C)(C)C[C@H]1C1=CC[C@@H]3[C@@]4(C)CC=C(B5OC(C)(C)C(C)(C)O5)C(C)(C)[C@@H]4CC[C@@]3(C)[C@]1(C)CC2
[1]
  pIC50: < 4.30
SW480
  pIC50: < 4.30
SK-OV-3
  pIC50: < 4.30
HeLa
  pIC50: < 4.30
JIYOYE
  pIC50: < 4.30
K562
  pIC50: < 4.30
Jurkat [2]
  pIC50: < 4.30

## CC1(C)CC[C@]2(C(N)=O)CC[C@]3(C)C(=CC[C@@H]4[C@@]5(C)CC=C(B6OC(C)(C)C(C)(C)O6)C(C)(C)[C@@H]5CC[C@]43C)[C@@H]2C1
Jurkat [6]
  Activity: 72.5%
Jurkat [7]
  Activity: 77.9%
Jurkat [8]
  Activity: 81.6%
Jurkat [9]
  Activity: 85.6%
Jurkat [10]
  Activity: 92.4%
Jurkat [11]
  Activity: 95.8%
Jurkat [22]
  Activity: inactive
Jurkat [19]
  Activity: Active
[1]
  pIC50: < 4.30
SW480
  pIC50: < 4.30
SK-OV-3
  pIC50: < 4.30
HeLa
  pIC50: 4.46
JIYOYE
  pIC50: 5.08
K562
  pIC50: 5.08
Jurkat [2]
  pIC50: 4.67

## CC1(C)CC[C@]2(C(=O)O)CC[C@]3(C)C(=CC[C@@H]4[C@@]5(C)CC=C(B6OC(C)(C)C(C)(C)O6)C(C)(C)[C@@H]5CC[C@]43C)[C@@H]2C1
[1]
  pIC50: < 4.30
SW480
  pIC50: < 4.30
SK-OV-3
  pIC50: < 4.30
HeLa
  pIC50: < 4.30
JIYOYE
  pIC50: < 4.30
K562
  pIC50: < 4.30
Jurkat [2]
  pIC50: < 4.30

Reference: ChEMBL document CHEMBL2375265, “Novel oleanolic vinyl boronates: synthesis and antitumor activity” (Eur J Med Chem, 2013)
